Read-outs that look alike come from different tables or passages of the source.

Holding throughout (assay type): cell-based, human
One assay has as its system IL-8. Kind of assay: IL-8 release from LPS-stimulated THP-1 monocytes, ELISA. The note with it: for inhibition at 15 µg/mL: Homo sapiens, read-out: % Inhibition (IL-8). As to the method:
(§1) THP-1 is a monocyte cell line obtained from American Type Culture Collection (ATCC) (catalog no. TIB-202). […] After 1 hour, lipopolysaccharide (LPS) (obtained from Sigma) was added to the cultures to give a final concentration of 200 ng/ml, and the cells were then incubated for an additional 4 hours or for an additional 24 hours. After the incubation, the cells were centrifuged, and the supernatants were collected. The concentrations of IL-8 and TNFα in the supernatants were determined by ELISA.
The concentrations of IL-8 in the supernatants were determined by ELISA performed as described in Example 4.
In general terms: ELISA stands for enzyme-linked immunosorbent assay.

The next assay concerns RAP-1. Kind of assay: RAP-1 activation pulldown assay in TRiPS cells. As to conditions: CD3/CD28 beads + 15 μg/ml. As for the experimental part:
Day 10 TRiPS cells, 1×10^6, were incubated with 15 μg/ml of the compound of formula II (Cpd II) for 1 hour at 37° C. Then, the cells were incubated with CD3/CD28 beads (1 μl per 100,000 cells) (obtained from Dynal) for 10 minutes at 37° C. The cells were then lysed with a mild buffer (supplied with Pierce EZ-Detect activation kit described below) to produce cell extracts. Protein concentrations of the resulting extracts were determined by bicinchoninic acid (BCA) assay (Pierce) and placed on ice for immediate use.
Pulldown assays were performed using Pierce EZ-Detect activation kits according to the manufacturer's instructions utilizing GST-RAF-1-RBD and GST-RalGDS-RBD for RAS and RAP-1 respectively. Briefly, 400 μg total protein from each extract was combined with recombinant protein and glutathione resin and incubated at 4° C. for one hour with gentle shaking. The resin was then washed to remove unbound protein and the activated RAS and RAP-1 proteins were removed by boiling in the presence of SDS-PAGE loading dye containing reducing agent. RAS and RAP-1 western blots were performed to visualize the proteins using antibodies supplied with the kit. Densitometry of the X-ray films was done by scanning and computer analysis.

Another assay concerns IL-2. Nature of the assay: Custom AntibodyArray, TRiPS cells: IL-2. The note with it: 15 μg/ml, 30 minutes. As for the experimental part: (§2) Day 18 TRiPS cells, 1×10^6, were incubated for 30 minutes at 37° C., either with nothing added (“Nil”), with 1 μl CD3/CD28 Dynabeads (Dynal, Oslo, Norway) (“CD3/CD28 beads”) per 100,000 cells, or with CD3/CD28 beads and 15 μg/ml of the compound of formula II (Cpd II). After the incubation, the cells were lysed in Cell-Lytic Mammalian Cell Extraction Reagent (Sigma). After centrifugation to pellet cellular debris, the supernatants (cell extracts) were obtained.
(§3) The cell extracts (supernatants) were then analyzed using a Custom AntibodyArray™ manufactured by Hypromatrix Inc., Worcester, Mass., following the manufacturer's instructions. The Custom AntibodyArray™ is a nylon membrane blotted with antibodies to the proteins listed below. Briefly, the cell extracts were incubated with duplicate Custom AntibodyArray™'s for 2 hours at room temperature with slow shaking, followed by three washes with Tris buffer (150 mM NaCl, 25 mM Tris, 0.05% Tween-20, pH 7.5). HRP-labeled antibodies specific for phosphorylated-tyrosine, phosphorylated-serine and phosphorylated-threonine in Tris buffer were added, and the arrays incubated for 2 hours. After three more washes with Tris buffer, a peroxidase-reactive luminescent substrate was added. The arrays were visualized by exposure to X-ray film. Densitometry of the X-ray films was measured by scanning and computer analysis.

Another assay deals with TNFα. Nature of the assay: TNFα release from LPS-stimulated THP-1 monocytes, ELISA. The note with it: THP-1, LPS 200 ng/ml, Cpd II 15 μg/ml, Dex 10 μM. As to the method: as §1
The TNFα ELISA was performed as described in Example 2.

A further assay has as its system STAT5b. Kind of assay: Custom AntibodyArray, TRiPS cells: STAT5b. The note with it: 15 μg/ml, 30 minutes. As for the experimental part:
as §2, §3

For assay [1], the system named is peripheral blood lymphocytes (PBL). Kind of assay: Cell clumping of PHA-stimulated PBL (microscopy). The note with it: PBL of donor GR283; 5 μg/ml PHA; compound 5, 15, 50 μg/ml; 24 h pre-incubation + 72 h. As to the method:
Whole blood was drawn from GR283, a human volunteer with known allergies, into a glass vacutainer tube containing no anticoagulant. This blood was allowed to clot, and the serum was removed by centrifugation and then heat inactivated by placing it in a water bath at 56° C. for 30 minutes. Whole blood from GR283 was also drawn into a glass vacutainer tube containing heparin and used for peripheral blood lymphocytes (PBL) isolation as follows. Whole blood was layered over room temperature Histopaque 1077 solution and centrifuged at 2000 rpm for 15 minutes at room temperature. Cells at the plasma-Histopaque interface were then removed and washed with culture medium (IMDM medium with 10% heat-inactivated GR283 serum plus 1% penicillin/streptomycin) at 37° C.
The compound of formula II (see above) and methylphenidate (both obtained from Dr. Jeffrey D. Winkler, University of Pennsylvania, Philadelphia, Pa.) in culture medium were added to wells of a 96-well plate to give final concentrations of 5 μg/ml, 15 μg/ml and 50 μg/ml of the compound of formula II and of methylphenidate. […] Then, GR283's PBL in culture medium were added to the wells to give a final concentration of 150,000 cells per well, and the plates were incubated at 37° C., 5% CO2 for 24 hours. […]

Broadly, the inhibition is the relative decrease from the control value, in per cent. Regarding `COC(=O)C(c1ccc(-c2ccccc2)cc1)C1CCCCN1` (stereo not shown) [Cpd II], the inhibition at 15 µg/mL in the assay with IL-8 (THP-1, 4 h) was 23%; with IL-8 (THP-1, 24 h), 33%; in the assay on TNFα (Homo sapiens, 24 hours), 53%. Further, the “Mean IL-8 Concentration” value with IL-8 (THP-1, LPS 200 ng/ml, 4 hours, Cpd II 15 μg/ml, Dex 10 μM, LPS alone 2844.60) came out at 2185.00 ± 78.30 pg/mL; in the assay with IL-8 (THP-1, LPS 200 ng/ml, 24 hours, Cpd II 15 μg/ml, Dex 10 μM, LPS alone 6653.20) it was 4490.20 ± 264.46 pg/mL. The “release of IL-8 from LPS-stimulated monocytes (in words)” value with IL-8 (THP-1, LPS 200 ng/ml, Cpd II 15 μg/ml, Dex 10 μM) was “significantly inhibited the release of IL-8”. In the assay on RAP-1, the “inhibition of RAP-1 (in words)” value was “appeared to inhibit RAP-1”. The “Integrated Optical Density for RAP-1 assay” value with RAP-1 (no treatment 259.27, beads only 213.66) is recorded as 87.26. For the same molecule, the “Effect of Cpd II on the protein in CD3/CD28 stimulated TRiPS cells” value is on record as “Decreased level back to basal levels (Nil control)” with IL-2 and “Activated” in the assay with STAT5b. Besides, the “Mean TNFα Concentration” value in the assay with TNFα (24 hours, LPS alone 138.655) came to 65.370 ± 0.891 pg/mL. Further, in the assay on TNFα, the “release of TNFα from LPS-stimulated monocytes (in words)” value is on record as “significantly inhibited the release of TNFα”. Moreover, in assay [1], the “cell clumping induced by PHA” value is on record as “reduced the amount of cell clumping induced by 5 μg/ml PHA in a dose-dependent manner”.

The values are drawn from US20060183773A1, “Uses of methylphenidate derivatives” (priority 2005, published 2006).
